These results are taken from PMC11426312 (Biochemistry, 2024).

In experiment [1] the target is T1, AbHMPK (hydroxymethyl pyrimidine kinase / phosphomethylpyrimidine kinase) (Acinetobacter baumannii, UniProt A0A0J9X285). The experiment is described as follows: X-ray crystal structure. It counts as biochemical.
Experiment [2] deals with T1, AbHMPK (hydroxymethyl pyrimidine kinase / phosphomethylpyrimidine kinase). The experiment is described as follows: HPLC and LC-MS/MS of the enzymatic product. It counts as biochemical.

T1 sequence (A0A0J9X285 whole entry): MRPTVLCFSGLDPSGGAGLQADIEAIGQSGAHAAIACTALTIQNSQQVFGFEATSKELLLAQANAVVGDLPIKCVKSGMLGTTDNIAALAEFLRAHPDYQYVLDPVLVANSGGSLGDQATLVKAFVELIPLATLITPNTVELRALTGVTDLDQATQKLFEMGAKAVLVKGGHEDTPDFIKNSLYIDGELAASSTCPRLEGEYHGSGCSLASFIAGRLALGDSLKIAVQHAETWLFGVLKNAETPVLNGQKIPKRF

The compound `Cc1ncc(COP(=O)(O)O)c(C=O)c1O` [PLP, 4-Formyl-5-hydroxy-6-methylpyridin-3-yl) methyl dihydrogen phosphate] came in with an IC50 in experiment [1] of 768 µM.

As for `Cc1ncc(COP(=O)(O)O)c(N)n1` [HMP-P], in experiment [2], the “HPLC and LC-MS/MS of the enzymatic product” value was “the mass spectrometry analysis all confirm that this single product is HMP-P”.

Usually IC50 stands for the midpoint of a concentration-inhibition curve. High values mean a need for much substance, low ones inhibition by little substance.
